Where a SMILES comes first, the peptide text is derived from it.
Assays:
red blood cells = assay: Red blood cell hemolysis assay; type: cell-based; settings: 1 hour at 37° C.
Description: Red blood cells were incubated with the indicated concentration of the peptides for 1 hour at 37° C. Results are expressed as the mean of triplicates±1 SD.
Approximately 25% of the red blood cells were lysed after 1 hour at the maximum dose tested (FIG. 9). Overall, the modified peptides containing the Ala substitutions were less cytotoxic, and the degree of cytotoxicity closely correlated with the number of Ala substitutions.

[1] = system: HeLa cells stably transfected with human ABCA1 cDNA (ABCA1 cells); assay: Cholesterol and phospholipid efflux from ABCA1 transfected cells; type: cell-based; settings: for cholesterol and phospholipid efflux from ABCA1 cells (in words): 18 hours; for cholesterol efflux to other detergents compared with taurodeoxycholate: sublytic concentrations, ABCA1 cells and control cells
Description: (§1) Percentage efflux was calculated after subtracting the radioactive counts in the blank media (αMEM plus 1 mg/ml of BSA), and expressed as the percent of total radioactive counts removed from the cells during the efflux period.
(§2) Cell fixation was performed by a 10 minute treatment with 3% paraformaldehyde in phosphate buffered saline (PBS), followed by three washes with blank media. Lactate dehydrogenase (LDH) release from cells into the media was measured enzymatically (Roche Diagnostics, Indianapolis, Ind.) and expressed, after subtraction of LDH released into blank media, as the percentage of total cell LDH. Total cell LDH was determined after cell solubilization with 1% Triton X-100.

[2] = system: HeLa cells transfected with only a hygromycin-resistant control plasmid (control cells); assay: Cholesterol and phospholipid efflux from control cells; type: cell-based, human; settings: for cholesterol and phospholipid efflux from control cells (in words): 18 hours
Description: as §1, §2

[3] = system: ABCA1 cells and control cells; assay: Cell morphology by light microscopy during efflux experiments; type: cell-based, human; settings: light microscopy, during efflux experiments

CC(C)C[C@H](NC(=O)[C@H](Cc1c[nH]c2ccccc12)NC(=O)[C@H](CC(=O)O)NC(=O)[C@@H]1CCCN1C(=O)[C@H](Cc1ccccc1)NC(=O)[C@H](C)NC(=O)[C@H](CCC(=O)O)NC(=O)[C@H](CCCCN)NC(=O)[C@H](CC(C)C)NC(=O)[C@H](CCCCN)NC(=O)[C@H](CCC(=O)O)NC(=O)[C@H](C)NC(=O)[C@@H](NC(=O)[C@H](CCCCN)NC(=O)[C@H](CC(=O)O)NC(=O)[C@H](Cc1ccc(O)cc1)NC(=O)[C@H](Cc1ccccc1)NC(=O)[C@H](C)NC(=O)[C@H](CCCCN)NC(=O)[C@H](CC(C)C)NC(=O)[C@H](Cc1c[nH]c2ccccc12)NC(=O)[C@@H](N)CC(=O)O)C(C)C)C(=O)N[C@@H](CCCCN)C(=O)N[C@@H](C)C(=O)N[C@@H](Cc1ccccc1)C(=O)N[C@@H](Cc1ccc(O)cc1)C(=O)N[C@@H](CC(=O)O)C(=O)N[C@@H](CCCCN)C(=O)N[C@H](C(=O)N[C@@H](C)C(=O)N[C@@H](CCC(=O)O)C(=O)N[C@@H](CCCCN)C(=O)N[C@@H](C)C(=O)N[C@@H](CCCCN)C(=O)N[C@@H](CCC(=O)O)C(=O)N[C@@H](C)C(=O)N[C@@H](C)C(=O)O)C(C)C [2A] (H-DWLKAFYDKVAEKLKEAFPDWLKAFYDKVAEKAKEAA-OH; N-terminus and C-terminus assumed)
hemolysis / cytotoxicity to red blood cells (in words) (red blood cells): moderate degree of hemolysis

DWLKAFYDKVAEKLKEAFPDWLKAFYDKVA EKLKEAF [37pA, reference compound]
cholesterol and phospholipid efflux from ABCA1 cells (in words) [1]: promoted ABCA1-mediated cholesterol efflux
cholesterol and phospholipid efflux from control cells (in words) [2]: able to mediate cholesterol efflux from a control HeLa cell line

C[C@H](CCC(=O)NCCS(=O)(=O)O)[C@H]1CC[C@H]2[C@@H]3CC[C@@H]4C[C@H](O)CC[C@]4(C)[C@H]3C[C@H](O)[C@]12C [taurodeoxycholate, reference compound]
cholesterol efflux from ABCA1 cells to detergent after fixation ([1]; 0.02%, 1 hour, after fixation with 3% paraformaldehyde): slightly increased after fixation
cholesterol efflux from ABCA1 cells to detergent ([1]; 0.02%, 1 hour, before fixation): small amount of cholesterol efflux
cholesterol efflux from control cells to detergent ([2]; 0.02%, 1 hour): Approximately the same amount of cholesterol efflux
effect on cell morphology [3]: did not alter the morphology of the cells

CC(C)C[C@H](NC(=O)[C@H](Cc1c[nH]c2ccccc12)NC(=O)[C@H](CC(=O)O)NC(=O)[C@@H]1CCCN1C(=O)[C@H](Cc1ccccc1)NC(=O)[C@H](C)NC(=O)[C@H](CCC(=O)O)NC(=O)[C@H](CCCCN)NC(=O)[C@H](CC(C)C)NC(=O)[C@H](CCCCN)NC(=O)[C@H](CCC(=O)O)NC(=O)[C@H](C)NC(=O)[C@@H](NC(=O)[C@H](CCCCN)NC(=O)[C@H](CC(=O)O)NC(=O)[C@H](Cc1ccc(O)cc1)NC(=O)[C@H](Cc1ccccc1)NC(=O)[C@H](C)NC(=O)[C@H](CCCCN)NC(=O)[C@H](CC(C)C)NC(=O)[C@H](Cc1c[nH]c2ccccc12)NC(=O)[C@@H](N)CC(=O)O)C(C)C)C(=O)N[C@@H](CCCCN)C(=O)N[C@@H](C)C(=O)N[C@@H](C)C(=O)N[C@@H](Cc1ccc(O)cc1)C(=O)N[C@@H](CC(=O)O)C(=O)N[C@@H](CCCCN)C(=O)N[C@H](C(=O)N[C@@H](C)C(=O)N[C@@H](CCC(=O)O)C(=O)N[C@@H](CCCCN)C(=O)N[C@@H](C)C(=O)N[C@@H](CCCCN)C(=O)N[C@@H](CCC(=O)O)C(=O)N[C@@H](C)C(=O)N[C@@H](C)C(=O)O)C(C)C [3A] (H-DWLKAFYDKVAEKLKEAFPDWLKAAYDKVAEKAKEAA-OH; N-terminus and C-terminus assumed)
hemolysis / cytotoxicity to red blood cells (in words) (red blood cells): moderate degree of hemolysis

RMRITERDDFRGQMSEITDDCPSLQDRFHLTEVHSLRVLEGS (Gamma crystalline peptide.) [contains two non-amphipathic alpha helices of approximately the same length as the helices on 37pA, reference compound]
cholesterol and phospholipid efflux from ABCA1 cells (in words) [1]: completely ineffective
cholesterol and phospholipid efflux from control cells (in words) [2]: completely ineffective

CC(C)C[C@H](NC(=O)[C@H](Cc1c[nH]c2ccccc12)NC(=O)[C@H](CC(=O)O)NC(=O)[C@@H]1CCCN1C(=O)[C@H](Cc1ccccc1)NC(=O)[C@H](C)NC(=O)[C@H](CCC(=O)O)NC(=O)[C@H](CCCCN)NC(=O)[C@H](CC(C)C)NC(=O)[C@H](CCCCN)NC(=O)[C@H](CCC(=O)O)NC(=O)[C@H](C)NC(=O)[C@@H](NC(=O)[C@H](CCCCN)NC(=O)[C@H](CC(=O)O)NC(=O)[C@H](Cc1ccc(O)cc1)NC(=O)[C@H](Cc1ccccc1)NC(=O)[C@H](C)NC(=O)[C@H](CCCCN)NC(=O)[C@H](CC(C)C)NC(=O)[C@H](Cc1c[nH]c2ccccc12)NC(=O)[C@@H](N)CC(=O)O)C(C)C)C(=O)N[C@@H](CCCCN)C(=O)N[C@@H](C)C(=O)N[C@@H](Cc1ccccc1)C(=O)N[C@@H](Cc1ccc(O)cc1)C(=O)N[C@@H](CC(=O)O)C(=O)N[C@@H](CCCCN)C(=O)N[C@H](C(=O)N[C@@H](C)C(=O)N[C@@H](CCC(=O)O)C(=O)N[C@@H](CCCCN)C(=O)N[C@@H](C)C(=O)N[C@@H](CCCCN)C(=O)N[C@@H](CCC(=O)O)C(=O)N[C@@H](C)C(=O)N[C@@H](Cc1ccccc1)C(=O)O)C(C)C [1A] (H-DWLKAFYDKVAEKLKEAFPDWLKAFYDKVAEKAKEAF-OH; N-terminus and C-terminus assumed)
hemolysis / cytotoxicity to red blood cells (in words) (red blood cells): moderate degree of hemolysis

NP-40
cholesterol efflux to other detergents compared with taurodeoxycholate [1]: Nearly identical results

CC(C)C[C@H](NC(=O)[C@H](CCCCN)NC(=O)[C@H](CCC(=O)O)NC(=O)[C@H](C)NC(=O)[C@@H](NC(=O)[C@H](CCCCN)NC(=O)[C@H](CC(=O)O)NC(=O)[C@H](Cc1ccc(O)cc1)NC(=O)[C@H](Cc1ccccc1)NC(=O)[C@H](C)NC(=O)[C@H](CCCCN)NC(=O)[C@H](CC(C)C)NC(=O)[C@H](Cc1c[nH]c2ccccc12)NC(=O)[C@@H](N)CC(=O)O)C(C)C)C(=O)N[C@@H](CCCCN)C(=O)N[C@@H](CCC(=O)O)C(=O)N[C@@H](C)C(=O)N[C@@H](Cc1ccccc1)C(=O)N1CCC[C@H]1C(=O)N[C@@H](CC(=O)O)C(=O)N[C@@H](Cc1c[nH]c2ccccc12)C(=O)N[C@@H](C)C(=O)N[C@@H](CCCCN)C(=O)N[C@@H](C)C(=O)N[C@@H](C)C(=O)N[C@@H](Cc1ccc(O)cc1)C(=O)N[C@@H](CC(=O)O)C(=O)N[C@@H](CCCCN)C(=O)N[C@@H](C)C(=O)N[C@@H](C)C(=O)N[C@@H](CCC(=O)O)C(=O)N[C@@H](CCCCN)C(=O)N[C@@H](C)C(=O)N[C@@H](CCCCN)C(=O)N[C@@H](CCC(=O)O)C(=O)N[C@@H](C)C(=O)N[C@@H](C)C(=O)O [5A] (H-DWLKAFYDKVAEKLKEAFPDWAKAAYDKAAEKAKEAA-OH; N-terminus and C-terminus assumed)
hemolysis / cytotoxicity to red blood cells (in words) (red blood cells): no appreciable hemolysis

C[C@H](CCC(=O)NCCC[N+](C)(C)CCCS(=O)(=O)[O-])[C@H]1CC[C@H]2[C@@H]3[C@H](O)C[C@@H]4C[C@H](O)CC[C@]4(C)[C@H]3C[C@H](O)[C@]12C [CHAPS]
cholesterol efflux to other detergents compared with taurodeoxycholate [1]: Nearly identical results

CC(C)C[C@H](NC(=O)[C@H](Cc1c[nH]c2ccccc12)NC(=O)[C@H](CC(=O)O)NC(=O)[C@@H]1CCCN1C(=O)[C@H](Cc1ccccc1)NC(=O)[C@H](C)NC(=O)[C@H](CCC(=O)O)NC(=O)[C@H](CCCCN)NC(=O)[C@H](CC(C)C)NC(=O)[C@H](CCCCN)NC(=O)[C@H](CCC(=O)O)NC(=O)[C@H](C)NC(=O)[C@@H](NC(=O)[C@H](CCCCN)NC(=O)[C@H](CC(=O)O)NC(=O)[C@H](Cc1ccc(O)cc1)NC(=O)[C@H](Cc1ccccc1)NC(=O)[C@H](C)NC(=O)[C@H](CCCCN)NC(=O)[C@H](CC(C)C)NC(=O)[C@H](Cc1c[nH]c2ccccc12)NC(=O)[C@@H](N)CC(=O)O)C(C)C)C(=O)N[C@@H](CCCCN)C(=O)N[C@@H](C)C(=O)N[C@@H](C)C(=O)N[C@@H](Cc1ccc(O)cc1)C(=O)N[C@@H](CC(=O)O)C(=O)N[C@@H](CCCCN)C(=O)N[C@@H](C)C(=O)N[C@@H](C)C(=O)N[C@@H](CCC(=O)O)C(=O)N[C@@H](CCCCN)C(=O)N[C@@H](C)C(=O)N[C@@H](CCCCN)C(=O)N[C@@H](CCC(=O)O)C(=O)N[C@@H](C)C(=O)N[C@@H](C)C(=O)O [4A] (H-DWLKAFYDKVAEKLKEAFPDWLKAAYDKAAEKAKEAA-OH; N-terminus and C-terminus assumed)
hemolysis / cytotoxicity to red blood cells (in words) (red blood cells): no appreciable hemolysis
